{"source": "patent US20260130933A1", "about": "“PHARMACEUTICAL COMPOSITION FOR PREVENTION OR TREATMENT OF NEPHROPATHY AND/OR DIABETES MELLITUS, COMPRISING ENAVOGLIFLOZIN” (DAEWOONG PHARMACEUTICAL CO., LTD., priority 2022, published 2026)", "assay": "Example 3: phase 3 trial, enavogliflozin 0.3 mg vs dapagliflozin 10 mg once a day for 24 weeks added to metformin and gemigliptin in patients with type 2 diabetes (same endpoints, rescue drug)", "assay_type": "in vivo, human", "conditions": "week 12", "procedure": "1) when Metformin (≥1,000 mg/Day) was Administered at a Constant Dose for at Least 8 Weeks Prior to Pre-Visit (Pre-Screening) • Metformin (≥1,000 mg/day) and gemigliptin (50 mg/day) were co-administered during the 8-week stabilization period. […] 4) when Metformin (≥1,000 mg/Day) and Gemigliptin (50 mg/Day) were Co-Administered at Constant Doses for at Least 8 Weeks Prior to Pre-Visit (Prescreening) • Without a separate stabilization period, Pre-visit (pre-screening) was Visit 1 (screening).\nSubjects who met the inclusion/exclusion criteria continued to receive metformin and gemigliptin while receiving a placebo of the clinical trial drug in a single-blind (subject-blinded) state for a 2-week run-in period.\nHere, the randomized subjects were stratified according to the administration therapy (co-administration with two or less agents (one or two agents) or three or more agents) of a conventional hypoglycemic agent (before washout of another hypoglycemic agent) within 24 weeks prior to obtaining written informed consent and by an HbA1c value (<8% or ≥8%) at Visit 1 (screening) measured in the central laboratory.\nThe randomized subjects were administered two tablets of the clinical trial drug corresponding to each administration group once a day, and then visited the institution at weeks 6, 12, 18, and 24 during the 24-week administration period to conduct efficacy and safety assessments. In addition, during the clinical trial period, they were instructed to exercise regularly and control their diet without changing their daily life patterns.\n• 1) Change in HbA1c at week 24 after administration of clinical trial drug compared to Visit 2 (randomization)\n• 1) Change in HbA1c at each time point of weeks 6, 12, and 18 after administration of clinical trial drug compared to Visit 2 (randomization) • 2) Change in FPG at each time point of weeks 6, 12, 18, and 24 after administration of clinical trial drug compared to Visit 2 (randomization) • 3) Proportion of subjects achieving HbA1c<7% at each time point of weeks 6, 12, 18, and 24 after administration of clinical trial drug • 4) Proportion of subjects achieving HbA1c<6.5% at each time point of weeks 6, 12, 18, and 24 after administration of clinical trial drug • 5) Proportion of subjects achieving therapeutic response (HbA1c change (HbA1c at Visit 2—HbA1c at each evaluation time point)>0.5% or HbA1c<7% at each evaluation time point compared to Visit 2 (randomization)) at each time point of weeks 6, 12, 18, and 24 after administration of clinical trial drug • 6) Proportion of subjects achieving therapeutic response (HbA1c change (HbA1c at Visit 2—HbA1c at each evaluation time point)>0.7% or HbA1c<7% at each evaluation time point compared to Visit 2 (randomization)) at each time point of weeks 6, 12, 18, and 24 after administration of clinical trial drug • 7) Proportion of subjects achieving therapeutic response (HbA1c change (HbA1c at Visit 2—HbA1c at each evaluation time point)>1% or HbA1c<7% at each evaluation time point compared to Visit 2 (randomization)) at each time point of weeks 6, 12, 18, and 24 after administration of clinical trial drug", "key": {"[1]": {"conditions": "modified per-protocol set 2, enavogliflozin 0.3 mg, dapagliflozin 10 mg"}, "[2]": {"conditions": "per-protocol set, enavogliflozin 0.3 mg vs dapagliflozin 10 mg"}, "[3]": {"conditions": "per-protocol set, enavogliflozin 0.3 mg, dapagliflozin 10 mg"}}}
{"smiles": "OC[C@H]1O[C@@H](c2cc(Cc3ccc(C4CC4)cc3)c(Cl)c3c2CCO3)[C@H](O)[C@@H](O)[C@@H]1O", "note": "[Enavogliflozin, (2S,3R,4R,5S,6R)-2-(7-chloro-6 (4-cyclopropylbenzyl)-2,3-dihydrobenzofuran-4-yl)-6-(hydroxymethyl)tetrahydro-2H-pyran-3,4,5-triol]", "values": [{"measurement": "Change from baseline in diastolic blood pressure, Mean", "setting": "modified per-protocol set 2", "result": "−5.07", "unit": "mmHg"}, {"measurement": "Change from baseline in diastolic blood pressure, Median", "setting": "modified per-protocol set 2", "result": "−5.00", "unit": "mmHg"}, {"measurement": "Diastolic blood pressure, Mean", "setting": "modified per-protocol set 2", "result": 71.61, "unit": "mmHg"}, {"measurement": "Diastolic blood pressure, Median", "setting": "modified per-protocol set 2", "result": 72.00, "unit": "mmHg"}, {"measurement": "Change from baseline in systolic blood pressure, ANCOVA LS mean difference", "setting": "modified per-protocol set 2, enavogliflozin 0.3 mg vs dapagliflozin 10 mg", "result": "−1.37", "unit": "mmHg"}, {"measurement": "Change from baseline in systolic blood pressure, ANCOVA LS mean", "setting": "[1]", "result": "−6.43", "unit": "mmHg"}, {"measurement": "Change from baseline in systolic blood pressure, Mean", "setting": "[1]", "result": "−7.10", "unit": "mmHg"}, {"measurement": "Change from baseline in systolic blood pressure, Median", "setting": "[1]", "result": "−8.00", "unit": "mmHg"}, {"measurement": "Systolic blood pressure, Mean", "setting": "[1]", "result": 120.73, "unit": "mmHg"}, {"measurement": "Systolic blood pressure, Median", "setting": "[1]", "result": 121.00, "unit": "mmHg"}, {"measurement": "Adiponectin, Mean", "setting": "per-protocol set", "result": 7.13, "unit": "µg/mL"}, {"measurement": "Adiponectin, Median", "setting": "per-protocol set", "result": 6.24, "unit": "µg/mL"}, {"measurement": "Change from baseline in HOMA-IR, ANCOVA LS mean", "setting": "per-protocol set", "result": "−1.11"}, {"measurement": "Change from baseline in HOMA-IR, LS mean difference (enavogliflozin − dapagliflozin)", "setting": "per-protocol set", "result": "−0.06"}, {"measurement": "Change from baseline in HOMA-IR, Mean", "setting": "per-protocol set", "result": "−1.16"}, {"measurement": "Change from baseline in HOMA-IR, Median", "setting": "per-protocol set", "result": "−0.79"}, {"measurement": "Change from baseline in HOMA-β, ANCOVA LS mean", "setting": "per-protocol set", "result": 7.78}, {"measurement": "Change from baseline in HOMA-β, LS mean difference (enavogliflozin − dapagliflozin)", "setting": "per-protocol set", "result": 2.55}, {"measurement": "Change from baseline in HOMA-β, Mean", "setting": "per-protocol set", "result": 6.71}, {"measurement": "Change from baseline in HOMA-β, Median", "setting": "per-protocol set", "result": 4.80}, {"measurement": "Change from baseline in UACR, ANCOVA LS mean", "setting": "per-protocol set", "result": -15.12, "unit": "g/kg"}, {"measurement": "Change from baseline in UACR, LS mean difference (enavogliflozin − dapagliflozin)", "setting": "per-protocol set", "result": -3.35, "unit": "g/kg"}, {"measurement": "Change from baseline in UACR, Mean", "setting": "per-protocol set", "result": -18.62, "unit": "g/kg"}, {"measurement": "Change from baseline in UACR, Median", "setting": "per-protocol set", "result": -1.05, "unit": "g/kg"}, {"measurement": "Change from baseline in UGCR, ANCOVA LS mean", "setting": "per-protocol set", "result": 58.21, "unit": "mg/mg"}, {"measurement": "Change from baseline in UGCR, LS mean difference (enavogliflozin − dapagliflozin)", "setting": "per-protocol set", "result": 13.37, "unit": "mg/mg"}, {"measurement": "Change from baseline in UGCR, Mean", "setting": "per-protocol set", "result": 57.00, "unit": "mg/mg"}, {"measurement": "Change from baseline in UGCR, Median", "setting": "per-protocol set", "result": 57.05, "unit": "mg/mg"}, {"measurement": "Change from baseline in adiponectin, ANCOVA LS mean", "setting": "per-protocol set", "result": 0.89, "unit": "µg/mL"}, {"measurement": "Change from baseline in adiponectin, LS mean difference (enavogliflozin − dapagliflozin)", "setting": "per-protocol set", "result": 0.19, "unit": "µg/mL"}, {"measurement": "Change from baseline in adiponectin, Mean", "setting": "per-protocol set", "result": 0.88, "unit": "µg/mL"}, {"measurement": "Change from baseline in adiponectin, Median", "setting": "per-protocol set", "result": 1.00, "unit": "µg/mL"}, {"measurement": "Change from baseline in leptin, ANCOVA LS mean", "setting": "per-protocol set", "result": -1.97, "unit": "ng/mL"}, {"measurement": "Change from baseline in leptin, LS mean difference (enavogliflozin − dapagliflozin)", "setting": "per-protocol set", "result": -0.28, "unit": "ng/mL"}, {"measurement": "Change from baseline in leptin, Mean", "setting": "per-protocol set", "result": -1.96, "unit": "ng/mL"}, {"measurement": "Change from baseline in leptin, Median", "setting": "per-protocol set", "result": -1.28, "unit": "ng/mL"}, {"measurement": "HOMA-IR (insulin resistance), Mean", "setting": "per-protocol set", "result": 1.76}, {"measurement": "HOMA-IR (insulin resistance), Median", "setting": "per-protocol set", "result": 1.46}, {"measurement": "HOMA-β (beta-cell function), Mean", "setting": "per-protocol set", "result": 49.46}, {"measurement": "HOMA-β (beta-cell function), Median", "setting": "per-protocol set", "result": 41.50}, {"measurement": "Leptin, Mean", "setting": "per-protocol set", "result": 8.56, "unit": "ng/mL"}, {"measurement": "Leptin, Median", "setting": "per-protocol set", "result": 5.74, "unit": "ng/mL"}, {"measurement": "UACR, Mean", "setting": "per-protocol set", "result": 29.37, "unit": "g/kg"}, {"measurement": "UACR, Median", "setting": "per-protocol set", "result": 11.20, "unit": "g/kg"}, {"measurement": "UGCR, Mean", "setting": "per-protocol set", "result": 57.71, "unit": "mg/mg"}, {"measurement": "UGCR, Median", "setting": "per-protocol set", "result": 57.43, "unit": "mg/mg"}, {"measurement": "Achieving HbA1c target of <6.5%, odds ratio (logistic regression model)", "setting": "[2]", "result": 1.44}, {"measurement": "Achieving HbA1c target of <7%, odds ratio (logistic regression model)", "setting": "[2]", "result": 1.20}, {"measurement": "Change from baseline in FPG, ANCOVA LS mean difference", "setting": "[2]", "result": -2.75, "unit": "mg/dL"}, {"measurement": "Change from baseline in HbA1c, ANCOVA LS mean difference", "setting": "[2]", "result": "−0.04", "unit": "% p"}, {"measurement": "Change from baseline in body weight, ANCOVA LS mean difference", "setting": "[2]", "result": -0.01, "unit": "kg"}, {"measurement": "Change from baseline in fasting C-peptide, ANCOVA LS mean difference", "setting": "[2]", "result": -0.02, "unit": "ng/mL"}, {"measurement": "Therapeutic glycemic response 1, odds ratio (logistic regression model)", "setting": "[2]", "result": 1.09}, {"measurement": "Therapeutic glycemic response 2, odds ratio (logistic regression model)", "setting": "[2]", "result": 1.30}, {"measurement": "Therapeutic glycemic response 3, odds ratio (logistic regression model)", "setting": "[2]", "result": 1.31}, {"measurement": "Body weight, Mean", "setting": "[3]", "result": 66.54, "unit": "kg"}, {"measurement": "Change from baseline in FPG, ANCOVA LS mean", "setting": "[3]", "result": -27.17, "unit": "mg/dL"}, {"measurement": "Change from baseline in FPG, Mean", "setting": "[3]", "result": -27.47, "unit": "mg/dL"}, {"measurement": "Change from baseline in FPG, Median", "setting": "[3]", "result": -25.00, "unit": "mg/dL"}, {"measurement": "Change from baseline in HbA1c, ANCOVA LS mean", "setting": "[3]", "result": "−0.87", "unit": "% p"}, {"measurement": "Change from baseline in HbA1c, Mean", "setting": "[3]", "result": "−0.89", "unit": "% p"}, {"measurement": "Change from baseline in HbA1c, Median", "setting": "[3]", "result": "−0.75", "unit": "% p"}, {"measurement": "Change from baseline in body weight, ANCOVA LS mean", "setting": "[3]", "result": -2.72, "unit": "kg"}, {"measurement": "Change from baseline in body weight, Mean", "setting": "[3]", "result": -2.65, "unit": "kg"}, {"measurement": "Change from baseline in body weight, Median", "setting": "[3]", "result": -2.90, "unit": "kg"}, {"measurement": "Change from baseline in fasting C-peptide, ANCOVA LS mean", "setting": "[3]", "result": -0.09, "unit": "ng/mL"}, {"measurement": "Change from baseline in fasting C-peptide, Mean", "setting": "[3]", "result": -0.09, "unit": "ng/mL"}, {"measurement": "Change from baseline in fasting C-peptide, Median", "setting": "[3]", "result": -0.10, "unit": "ng/mL"}, {"measurement": "FPG, Mean", "setting": "[3]", "result": 112.29, "unit": "mg/dL"}, {"measurement": "FPG, Median", "setting": "[3]", "result": 110.00, "unit": "mg/dL"}, {"measurement": "Fasting C-peptide, Mean", "setting": "[3]", "result": 0.64, "unit": "ng/mL"}, {"measurement": "Fasting C-peptide, Median", "setting": "[3]", "result": 0.63, "unit": "ng/mL"}, {"measurement": "HbA1c, Mean", "setting": "[3]", "result": 6.90, "unit": "%"}]}
